Laboratory results reported in US8158628B2, “Sulfonylated 1,2,3,4-tetrahydropyrrolo[1,2-a]pyrazine compounds and their use as pharmaceuticals” (Gruenenthal GmbH, priority 2009, dated 2012).

Experiments:
[1] = molecular target: T1, B1R of the rat (Rattus norvegicus, UniProt P97583); test: FLIPR Ca2+ functional assay, B1R antagonism, rat B1R in CHO K1 cells; format: cell-based; settings: test substance 10 μM; rB1R CHO K1 cells; agonist Des-Arg9 bradykinin at EC80; % of maximum achievable inhibition
T1 construct: expressed in transfected cells; host or cells: CHO K1 cells (Chinese hamster ovary), stably transfected
T1 sequence (P97583 1-337): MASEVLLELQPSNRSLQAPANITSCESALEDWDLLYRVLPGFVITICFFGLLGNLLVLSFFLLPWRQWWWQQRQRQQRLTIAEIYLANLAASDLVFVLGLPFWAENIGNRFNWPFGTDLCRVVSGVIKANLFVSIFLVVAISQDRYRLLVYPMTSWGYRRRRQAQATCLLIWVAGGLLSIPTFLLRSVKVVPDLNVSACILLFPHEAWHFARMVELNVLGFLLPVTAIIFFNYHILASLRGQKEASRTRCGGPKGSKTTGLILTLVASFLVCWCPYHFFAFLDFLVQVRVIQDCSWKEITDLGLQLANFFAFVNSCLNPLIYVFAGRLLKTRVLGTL
Outline: (§1)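 IC50 values come from varied compound concentrations applied 10-20 min before an EC80 agonist challenge, with Des-Arg9 bradykinin for rat and Lys-Des-Arg9 bradykinin for human receptor. Ca2+ influx in Fluo-4-loaded CHO K1 transfectants was measured by FLIPR peak fluorescence. Data are % inhibition vs maximum, n=2-3, N>=2.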

[2] = molecular target: T2, human B1R (Homo sapiens, UniProt P46663); test: FLIPR Ca2+ functional assay, B1R antagonism, human B1R in CHO K1 cells; format: cell-based; settings: test substance 10 μM; hB1R CHO K1 cells; agonist Lys-Des-Arg9 bradykinin at EC80; % of maximum achievable inhibition
T2 construct: expressed in transfected cells; host or cells: CHO K1 cells (Chinese hamster ovary), stably transfected
T2 sequence (P46663 1-353): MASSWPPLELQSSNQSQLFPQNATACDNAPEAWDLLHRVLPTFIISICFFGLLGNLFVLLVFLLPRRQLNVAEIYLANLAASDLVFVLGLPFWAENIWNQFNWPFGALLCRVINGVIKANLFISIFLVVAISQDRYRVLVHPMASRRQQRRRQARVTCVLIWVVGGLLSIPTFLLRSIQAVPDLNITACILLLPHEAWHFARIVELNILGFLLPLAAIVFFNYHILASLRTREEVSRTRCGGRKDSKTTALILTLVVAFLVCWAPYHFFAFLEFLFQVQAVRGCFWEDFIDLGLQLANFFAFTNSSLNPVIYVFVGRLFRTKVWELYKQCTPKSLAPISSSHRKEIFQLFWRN
Outline: as §1

Structure (SMILES) | inhibition at 10 µM [1] | inhibition at 10 µM [2]
CCC(C)NCc1ccc2c(c1)CCCC2NC(=O)CC1c2cccn2CCN1S(=O)(=O)c1ccc(C)c(Cl)c1 (centres unmarked) [Example 132, 2-[2-[(3-Chloro-4-methyl-phenyl)sulfonyl]-1,2,3,4-tetrahydro-pyrrolo[1,2-a]pyrazin-1-yl]-N-[6-[(1-methyl-propylamino)-methyl]-1,2,3,4-tetrahydro-naphthalen-1-yl]-acetamide] | 102% | 99.8%
CNCc1ccc2c(c1)CCCC2NC(=O)CC1c2cccn2CCN1S(=O)(=O)c1ccc(C)cc1 (centres unmarked) [Example 133, N-[6-(Methylamino-methyl)-1,2,3,4-tetrahydro-naphthalen-1-yl]-2-[2-(p-tolylsulfonyl)-1,2,3,4-tetrahydro-pyrrolo[1,2-a]pyrazin-1-yl]-acetamide] | 104% | 99.4%
CNCc1ccc2c(c1)CCCC2NC(=O)CC1c2cccn2CCN1S(=O)(=O)c1ccc2cc(OC)ccc2c1 (centres unmarked) [Example 134, 2-[2-[(6-Methoxy-naphthalen-2-yl)sulfonyl]-1,2,3,4-tetrahydro-pyrrolo[1,2-a]pyrazin-1-yl]-N-[6-(methylamino-methyl)-1,2,3,4-tetrahydro-naphthalen-1-yl]-acetamide] | 103% | 99.8%
CNCc1ccc2c(c1)CCCC2NC(=O)CC1c2cccn2CCN1S(=O)(=O)c1cccc(C(F)(F)F)c1 (centres unmarked) [Example 135, N-[6-(Methylamino-methyl)-1,2,3,4-tetrahydro-naphthalen-1-yl]-2-[2-[[3-(trifluoromethyl)phenyl]sulfonyl]-1,2,3,4-tetrahydro-pyrrolo[1,2-a]pyrazin-1-yl]-acetamide] | 104% | 99.6%
CNCc1ccc2c(c1)CCC(NC(=O)CC1c3cccn3CCN1S(=O)(=O)c1ccc(C)c(Cl)c1)C2 (centres unmarked) [Example 138, 2-[2-[(3-Chloro-4-methyl-phenyl)sulfonyl]-1,2,3,4-tetrahydro-pyrrolo[1,2-a]pyrazin-1-yl]-N-[6-(methylamino-methyl)-1,2,3,4-tetrahydro-naphthalen-2-yl]-acetamide] | 103% | 99.8%
CNCc1ccc2c(c1)CCC(NC(=O)CC1c3cccn3CCN1S(=O)(=O)c1cccc(C(F)(F)F)c1)C2 (centres unmarked) [Example 139, N-[6-(Methylamino-methyl)-1,2,3,4-tetrahydro-naphthalen-2-yl]-2-[2-[[3-(trifluoromethyl)phenyl]sulfonyl]-1,2,3,4-tetrahydro-pyrrolo[1,2-a]pyrazin-1-yl]-acetamide] | 103% | 99.1%
CNCc1ccc2c(c1)CCC(NC(=O)CC1c3cccn3CCN1S(=O)(=O)c1ccc(C)cc1)C2 (centres unmarked) [Example 140, N-[6-(Methylamino-methyl)-1,2,3,4-tetrahydro-naphthalen-2-yl]-2-[2-(p-tolylsulfonyl)-1,2,3,4-tetrahydro-pyrrolo[1,2-a]pyrazin-1-yl]-acetamide] | 102% | 96.1%

Continued, values first:

inhibition at 10 µM [1] | inhibition at 10 µM [2] | Structure (SMILES)
101% | 99.8% | CCC(C)NCc1ccc2c(c1)CCCC2NC(=O)CC1c2cccn2CCN1S(=O)(=O)c1cccc(C(F)(F)F)c1 (centres unmarked) [Example 131, N-[6-[(1-Methyl-propylamino)-methyl]-1,2,3,4-tetrahydro-naphthalen-1-yl]-2-[2-[[3-(trifluoromethyl)phenyl]sulfonyl]-1,2,3,4-tetrahydro-pyrrolo[1,2-a]pyrazin-1-yl]-acetamide]
-29.2% | 99.7% | CNCc1ccc2c(c1)CCCC2NC(=O)CC1c2cccn2CCN1S(=O)(=O)c1ccc(C)c(Cl)c1 (centres unmarked) [Example 136, 2-[2-[(3-Chloro-4-methyl-phenyl)sulfonyl]-1,2,3,4-tetrahydro-pyrrolo[1,2-a]pyrazin-1-yl]-N-[6-(methylamino-methyl)-1,2,3,4-tetrahydro-naphthalen-1-yl]-acetamide]
104% | 99.7% | CNCc1ccc2c(c1)CCC(NC(=O)CC1c3cccn3CCN1S(=O)(=O)c1ccc3cc(OC)ccc3c1)C2 (centres unmarked) [Example 137, 2-[2-[(6-Methoxy-naphthalen-2-yl)sulfonyl]-1,2,3,4-tetrahydro-pyrrolo[1,2-a]pyrazin-1-yl]-N-[6-(methylamino-methyl)-1,2,3,4-tetrahydro-naphthalen-2-yl]-acetamide]
